# System: NF-κB subunits p65 and p50 in BV-2 cells
# Test: NF-κB p65/p50 nuclear translocation in LPS-stimulated BV-2 cells (Western, immunofluorescence)
# Type: cell-based, murine
# Protocol: Nuclear and cytoplasmic fractions of BV-2 cells were prepared at several time points after treatment (0-120 minutes) using the nuclear extract kit from Active Motif (Carlsbad, Calif.). Briefly, cells were washed, collected in ice-cold PBS in the presence of phosphatase inhibitors, and centrifuged at 300×g for 5 min at 4° C. Cell pellets were resuspended in hypotonic buffer, treated with detergent, and centrifuged at 14,000×g for 30 sec at 4° C. After collection of the cytoplasmic fraction, nuclei were solubilized for 30 min in lysis buffer containing protease inhibitors. Lysates were centrifuged at 14,000×g for 30 min at 4° C. and supernatants were collected for NF-κB studies. To prepare whole cell lysates for phospho-Akt and phospho-IKK studies, cells were washed in ice-cold PBS and lysed in 20 mM Tris-HCl, pH 7.5, 150 mM NaCl, 1 mM Na2EDTA, 1 mM EGTA, 1% Triton, 2.5 mM sodium pyrophosphate, 1 mM β-glycerophosphate, 1 mM orthovanadate, 1 μg/ml leupeptin and 1 mM PMSF. Lysates were sonicated for 5 seconds, centrifuged at 14,000×g for 10 min at 4° C. and supernatants were collected for phospho-Akt and phospho-IKK studies. All protein concentrations were determined using the Bradford protein assay.
# Western blot analysis. Protein (20 μg per lane) was fractionated using 12% SDS-PAGE and electrophoretically transferred to PVDF membranes (Bio-Rad, Hercules, Calif.). For phospho-Akt/Akt and phospho-IKK/IKK studies, membranes were probed with anti phospho-Ser473 Akt antibody or anti-phospho-IKK antibody (1:1000, Cell signaling, Beverly, Mass.) and anti-Akt and anti-IKK antibodies (1:1000; Cell Signaling). For NF-κB nuclear translocation studies, membranes were probed with anti-NF-κB p105/p50 antibody (1:5000, Abcom, Cambridge, Mass.) or anti-NF-κB p65 antibody (1:300, Santa Cruz Biotechnology). Loading controls included anti-actin antibody (1:10,000, Santa Cruz Biotechnology, Inc. Santa Cruz, Calif.) for cytosolic fractions and anti-lamin B1 antibody (1:10,000, Abcom, Cambridge, Mass.) for nuclear fractions. Immunoreactivity was detected using either sheep anti-rabbit or sheep anti-mouse HRP-conjugated secondary antibody (Amersham Biosciences, Arlington Heights, Ill.), followed by enhanced chemiluminescence (Pierce). Autoradiographic signals were quantified using NIH Image. Experiments were repeated in triplicate.
# BV-2 cells were seeded on poly-L-Lysine coated glass coverslips and were maintained in culture for at least 24 hours before treatment with LPS+/−AE1-329. After one hour of treatment, cells were fixed with 4% paraformaldehyde and processed for immunocytochemistry using established protocols. NF-κB cellular localization was detected using rabbit anti-NF-κB p65 antibody (1:200, Santa Cruz Biotechnology) and Cy3-conjugated donkey anti-rabbit secondary antibody (Jackson ImmunoResearch Laboratories, West Grove, Pa.). Nuclei were visualized using Hoechst 33258 dye (MP Biomedicals, Solon, Ohio). Images were acquired using a Nikon Eclipse E600 microscope (Nikon Instruments, Melville, N.Y.) and a Hamamatsu Orca-ER digital camera (Hamamatsu Photonics, Bridgewater, N.J.). For quantification of nuclear NF-κB p65 levels, images were analyzed using the measurements module of Volocity 4.3.2 image analysis software (Improvision Inc., Waltham, Mass.). […] For data quantification, each data point represented the average NF-κB p65 signal from the nuclei in one field of view (>100 cells). […]
compound,measurement,setting,value
COCc1ccccc1CC[C@H](O)/C=C/[C@H]1[C@H](O)CC(=O)[C@@H]1SCCCSCC(=O)O [AE1-329],nuclear p65 immunofluorescent signal,"BV-2 cells, 60 minutes after LPS 100 ng/ml, AE1-329 100 nM",significantly attenuated
same,LPS-induced nuclear translocation of NF-κB subunits p65 and p50 (Western),"BV-2 cells, LPS 100 ng/ml, AE1-329 100 nM, vs vehicle",reduced levels of NF-κB nuclear translocation
same,"time of maximal attenuation of nuclear translocation, NF-κB p65","BV-2 cells, LPS + AE1-329",60 min
same,"time of maximal attenuation of nuclear translocation, p50","BV-2 cells, LPS + AE1-329",120 min
same,cytoplasmic levels of p65 and p50,"LPS-treated BV-2 cells, AE1-329 vs vehicle",increased
